Assay results reported in US20240327412A1, “FACTOR XIIA INHIBITORS” (KALVISTA PHARMACEUTICALS LIMITED, priority 2021, published 2024).

Legend:
Type in all cases: biochemical
[1] = biological target: KLK1 (Homo sapiens, UniProt P06870); assay: Related protease inhibition: KLK1 (fluorogenic substrate at Km); details: class symbols per Table 18
Method: (§1) In vitro inhibition of related proteases was determined using an IC50 assay based on standard literature methods (see e.g. Shori et al., Biochem. Pharmacol., 1992, 43, 1209; Bouckaert et al., European Journal of Medicinal Chemistry 110 (2016) 181). Human serine protease enzyme Plasma Kallikrein, KLK1, FXa, Plasmin, Thrombin and Trypsin were assayed for enzymatic activity using an appropriate fluorogenic substrate at Km concentration, FXIa at fixed substrate concentration of 100 μM and various concentrations of the test compound. Protease activity was measured by monitoring the accumulation of liberated fluorescence from the substrate over 5 min at 25° C. The linear rate of fluorescence increase per minute was expressed as percentage (%) activity. IC50 values were calculated as the concentration of inhibitor giving 50% inhibition of the uninhibited enzyme activity (100%).

[2] = biological target: FXa (Homo sapiens, UniProt P00742); assay: Related protease inhibition: FXa (fluorogenic substrate at Km); details: class symbols per Table 18
Sequence of FXa (P00742 235-488 limits assumed): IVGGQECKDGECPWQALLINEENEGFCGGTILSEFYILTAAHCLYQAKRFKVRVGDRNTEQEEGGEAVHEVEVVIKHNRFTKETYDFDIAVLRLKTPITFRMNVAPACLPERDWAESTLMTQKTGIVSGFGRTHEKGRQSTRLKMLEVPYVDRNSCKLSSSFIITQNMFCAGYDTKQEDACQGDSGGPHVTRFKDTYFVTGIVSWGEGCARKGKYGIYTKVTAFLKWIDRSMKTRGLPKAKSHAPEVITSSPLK
Sequence of FXa (P00742 41-179 partner limits assumed): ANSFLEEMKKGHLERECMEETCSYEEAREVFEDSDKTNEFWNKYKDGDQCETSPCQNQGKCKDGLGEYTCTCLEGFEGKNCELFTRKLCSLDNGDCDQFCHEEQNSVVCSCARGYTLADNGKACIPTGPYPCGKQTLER
Method: as §1

[3] = biological target: Thrombin (Homo sapiens, UniProt P00734); assay: Related protease inhibition: Thrombin (fluorogenic substrate at Km); details: class symbols per Table 18
Method: as §1

[4] = biological target: T1, Human Factor XIIa (Homo sapiens, UniProt P00748); assay: Determination of FXIIa inhibition (fluorogenic substrate H-DPro-Phe-Arg-AFC, IC50 assay); details: substrate at Km concentration, 25° C.; category scale; read-out: Human FXII IC50 (nm)
T1 construct: Proteolytic cleavage of FXII to heavy and light chains of FXIIa dramatically increases catalytic activity; purchased Enzyme Research Laboratories
T1 sequence (P00748 373-615 limits assumed): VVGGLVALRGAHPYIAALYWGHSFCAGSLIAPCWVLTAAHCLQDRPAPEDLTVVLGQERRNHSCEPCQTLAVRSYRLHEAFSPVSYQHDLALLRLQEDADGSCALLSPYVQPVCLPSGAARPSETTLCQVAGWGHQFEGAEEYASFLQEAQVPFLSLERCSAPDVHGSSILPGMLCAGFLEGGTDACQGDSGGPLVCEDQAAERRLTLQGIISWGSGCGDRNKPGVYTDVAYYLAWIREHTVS
T1 sequence (P00748 20-372 partner limits assumed): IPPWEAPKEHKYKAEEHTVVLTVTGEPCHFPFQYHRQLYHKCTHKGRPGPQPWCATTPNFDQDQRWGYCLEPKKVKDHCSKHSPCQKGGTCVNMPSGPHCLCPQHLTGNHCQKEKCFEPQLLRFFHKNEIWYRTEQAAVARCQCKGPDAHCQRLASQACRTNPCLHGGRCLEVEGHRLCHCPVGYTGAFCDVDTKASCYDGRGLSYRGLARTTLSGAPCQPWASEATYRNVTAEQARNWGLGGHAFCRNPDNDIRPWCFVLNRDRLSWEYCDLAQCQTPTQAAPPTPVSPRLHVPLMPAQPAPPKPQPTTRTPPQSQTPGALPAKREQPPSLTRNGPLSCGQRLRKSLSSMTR
Method in brief: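 Human FXIIa incubated at 25° C. with fluorogenic H-DPro-Phe-Arg-AFC at its Km concentration plus varying compound levels. Linear fluorescence increase over 5 min taken as % activity; IC50 is concentration halving uninhibited activity.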

[5] = biological target: T2, Plasma Kallikrein (Homo sapiens, UniProt P03952); assay: Related protease inhibition: Plasma Kallikrein (fluorogenic substrate at Km); details: class symbols per Table 18, read-out: IC50 (human PKal)
T2 construct: FXIIa converts plasma prekallikrein (PK) to plasma kallikrein (PKa)
T2 sequence (P03952 391-638 limits assumed): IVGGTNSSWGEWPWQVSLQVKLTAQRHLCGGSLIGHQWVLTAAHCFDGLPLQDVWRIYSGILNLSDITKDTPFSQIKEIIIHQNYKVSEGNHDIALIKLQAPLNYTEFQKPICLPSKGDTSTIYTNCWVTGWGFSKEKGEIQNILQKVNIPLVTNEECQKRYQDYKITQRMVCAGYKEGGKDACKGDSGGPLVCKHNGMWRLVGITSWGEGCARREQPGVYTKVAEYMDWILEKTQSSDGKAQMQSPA
T2 sequence (P03952 20-390 partner limits assumed): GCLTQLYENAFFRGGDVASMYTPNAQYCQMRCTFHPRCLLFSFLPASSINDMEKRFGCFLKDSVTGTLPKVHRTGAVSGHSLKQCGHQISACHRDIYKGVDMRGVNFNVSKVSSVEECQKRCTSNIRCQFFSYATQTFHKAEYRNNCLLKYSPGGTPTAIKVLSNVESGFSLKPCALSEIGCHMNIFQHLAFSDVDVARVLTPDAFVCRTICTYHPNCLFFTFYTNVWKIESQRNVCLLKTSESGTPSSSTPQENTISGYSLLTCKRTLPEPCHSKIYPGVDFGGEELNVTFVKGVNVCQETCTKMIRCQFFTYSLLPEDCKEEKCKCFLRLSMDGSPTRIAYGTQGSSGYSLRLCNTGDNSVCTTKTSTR
Method in brief: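 Fluorogenic substrate at Km for thrombin, trypsin and plasma kallikrein; FXIa run at fixed 100 μM substrate. Varied inhibitor concentrations, fluorescence accumulation read over 5 min, 25° C. IC50 = concentration giving 50% inhibition versus uninhibited (100%) activity.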

Sequence of KLK1 (P06870 25-262): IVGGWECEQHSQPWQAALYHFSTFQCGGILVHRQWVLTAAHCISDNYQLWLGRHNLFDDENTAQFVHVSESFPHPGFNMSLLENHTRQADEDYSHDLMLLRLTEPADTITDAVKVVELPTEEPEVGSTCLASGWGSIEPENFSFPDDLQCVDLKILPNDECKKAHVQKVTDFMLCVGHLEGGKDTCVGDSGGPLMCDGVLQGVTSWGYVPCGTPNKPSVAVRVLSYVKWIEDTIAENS

Row | IC50 [1] [µM] | IC50 [2] [µM] | IC50 [3] [µM] | IC50 [4] [µM] | IC50 [5] [µM] | SMILES
1 | > 40 | > 40 | > 40 | 1 to 3 | > 40 | Cc1cc2c(NCC34CC(COc5ccn6ccnc6c5)(CCO3)C4)ccnc2[nH]1 [Example 10907, N-[[5-(Imidazo[1,2-a]pyridin-7-yloxymethyl)-2-oxabicyclo[3.1.1]heptan-1-yl]methyl]-2-methyl-1H-pyrrolo[2,3-b]pyridin-4-amine]
2 | 3 to 10 | 1 to 3 | 10 to 40 | 3 to 10 | > 40 | Nc1nccc2c(NCC34CC(COc5ccc6nc[nH]c6c5)(C3)C4)cccc12 [Example 1105, N5-((3-(((1H-benzo[d]imidazol-6-yl)oxy)methyl)bicyclo[1.1.1]pentan-1-yl)methyl)isoquinoline-1,5-diamine]
3 | > 100 | – | – | 10 to 40 | > 100 | c1cc(NCC23CC(COc4ccn5ccnc5c4)(C2)C3)c2cc[nH]c2n1 [Example 1009, N-((3-((imidazo[1,2-a]pyridin-7-yloxy)methyl)bicyclo[1.1.1]pentan-1-yl)methyl)-1H-pyrrolo[2,3-b]pyridin-4-amine]
4 | 3 to 10 | 10 to 40 | 10 to 40 | 0.3 to 1 | > 40 | Cn1ccc(OCC23CC(CNc4cccc5c(N)nccc45)(C2)C3)cc1=O [Example 1019, 4-[[3-[[(1-aminoisoquinolin-5-yl)amino]methyl]-1-bicyclo[1.1.1]pentanyl]methoxy]-1-methylpyridin-2-one]
5 | 3 to 10 | > 40 | – | 0.3 to 1 | – | Nc1nccc2c(NCC34CC(COc5cn6ccnc6cn5)(CO3)C4)cccc12 [Example 6616, N5-((4-((imidazo[1,2-a]pyrazin-6-yloxy)methyl)-2-oxabicyclo[2.1.1]hexan-1-yl)methyl)isoquinoline-1,5-diamine]
6 | 3 to 10 | > 40 | > 40 | 0.1 to 0.3 | > 40 | Nc1nccc2c(NC[C@H]3C[C@@H](COc4ccn5ccnc5c4)C3)cccc12 [Example 5003, N5-((cis-3-((imidazo[1,2-a]pyridin-7-yloxy)methyl)cyclobutyl)methyl)isoquinoline-1,5-diamine]
7 | 1 to 3 | > 40 | – | 0.01 to 0.1 | > 4 | Cn1ccc(OCC23CN(C(=O)Oc4ccccc4)C(CNc4cccc5c(N)nccc45)(C2)C3)cc1=O [Example 12008, phenyl 1-(((1-aminoisoquinolin-5-yl)amino)methyl)-4-(((1-methyl-2-oxo-1,2-dihydropyridin-4-yl)oxy)methyl)-2-azabicyclo[2.1.1]hexane-2-carboxylate]
8 | 3 to 10 | 10 to 40 | – | 0.1 to 0.3 | 3 to 10 | Cc1cn2ccnc2cc1OCC12CCOC(CNc3cccc4c(N)nccc34)(C1)C2 [Example 10920, N5-((5-(((6-methylimidazo[1,2-a]pyridin-7-yl)oxy)methyl)-2-oxabicyclo[3.1.1]heptan-1-yl)methyl)isoquinoline-1,5-diamine]
9 | > 100 | > 40 | – | – | > 40 | Clc1cccc(NCC23CC(COc4ccn5ccnc5c4)(CCO2)C3)c1 [Example 10919, 3-chloro-N-((5-((imidazo[1,2-a]pyridin-7-yloxy)methyl)-2-oxabicyclo[3.1.1]heptan-1-yl)methyl)aniline]
10 | 3 to 10 | > 40 | – | 0.1 to 0.3 | > 4 | Nc1nccc2c(NCC34CC(COc5ccn6ccnc6n5)(CO3)C4)cccc12 [Example 6614, N5-((4-((imidazo[1,2-a]pyrimidin-7-yloxy)methyl)-2-oxabicyclo[2.1.1]hexan-1-yl)methyl)isoquinoline-1,5-diamine]
11 | 10 to 40 | > 40 | – | 0.01 to 0.1 | > 4 | CC(=O)N1CC2(COc3ccn(C)c(=O)c3)CC1(CNc1cccc3c(N)nccc13)C2 [Example 12009, 4-((2-acetyl-1-(((1-aminoisoquinolin-5-yl)amino)methyl)-2-azabicyclo[2.1.1]hexan-4-yl)methoxy)-1-methylpyridin-2(1H)-one]
12 | 3 to 10 | 10 to 40 | – | 0.3 to 1 | – | Nc1nccc2c(NCC34CC(COc5ccn6cc(C(F)F)nc6c5)(CO3)C4)cccc12 [Example 6613, N5-((4-(((2-(difluoromethyl)imidazo[1,2-a]pyridin-7-yl)oxy)methyl)-2-oxabicyclo[2.1.1]hexan-1-yl)methyl)isoquinoline-1,5-diamine]
13 | > 100 | > 40 | – | – | > 40 | Clc1ccc(NCC23CC(COc4ccn5ccnc5c4)(CCO2)C3)cc1 [Example 10918, 4-chloro-N-((5-((imidazo[1,2-a]pyridin-7-yloxy)methyl)-2-oxabicyclo[3.1.1]heptan-1-yl)methyl)aniline]
14 | 3 to 10 | > 40 | – | 0.1 to 0.3 | – | Nc1nccc2c(NCC34CCCC(COc5ccc6nccn6c5)(C3)C4)cccc12 [Example 10942, N5-((5-((imidazo[1,2-a]pyridin-6-yloxy)methyl)bicyclo[3.1.1]heptan-1-yl)methyl)isoquinoline-1,5-diamine]
15 | 3 to 10 | – | – | 0.01 to 0.1 | – | Cc1cc(OCC23CCOC(CNc4cccc5c(N)nccc45)(C2)C3)cc2nccn12 [Example 10925, N5-((5-(((5-methylimidazo[1,2-a]pyridin-7-yl)oxy)methyl)-2-oxabicyclo[3.1.1]heptan-1-yl)methyl)isoquinoline-1,5-diamine]
16 | 1 to 3 | > 40 | – | 0.1 to 0.3 | > 4 | CN1Cc2ccc(OCC34CC(CNc5cccc6c(N)nccc56)(CO3)C4)cc2C1=O [Example 2211, 6-((4-(((1-aminoisoquinolin-5-yl)amino)methyl)-2-oxabicyclo[2.1.1]hexan-1-yl)methoxy)-2-methylisoindolin-1-one]
17 | > 4 | > 4 | – | 0.01 to 0.1 | > 40 | Cn1ccc(OCC23CC(CNc4cccc5c(N)nccc45)(CN2C(=O)OCc2ccccc2)C3)cc1=O [Example 13001, benzyl 4-(((1-aminoisoquinolin-5-yl)amino)methyl)-1-(((1-methyl-2-oxo-1,2-dihydropyridin-4-yl)oxy)methyl)-2-azabicyclo[2.1.1]hexane-2-carboxylate]
18 | > 40 | 1 to 3 | – | 0.3 to 1 | – | Clc1cc2c(NCC34CC(COc5ccn6ccnc6c5)(C3)C4)ccnc2[nH]1 [Example 1010]
19 | 3 to 10 | 10 to 40 | – | 0.01 to 0.1 | > 40 | Cc1cc(OCC23COC(CNc4cccc5c(N)nccc45)(C2)C3)cn2ccnc12 [Example 6617, N5-((4-(((8-methylimidazo[1,2-a]pyridin-6-yl)oxy)methyl)-2-oxabicyclo[2.1.1]hexan-1-yl)methyl)isoquinoline-1,5-diamine]
20 | 10 to 40 | – | – | 0.3 to 1 | – | Nc1nccc2c(N3CCC4(CC(COc5ccn6ccnc6c5)C4)C3)cccc12 (stereo not drawn) [Example 8807, 5-(cis*-2-((imidazo[1,2-a]pyridin-7-yloxy)methyl)-6-azaspiro[3.4]octan-6-yl)isoquinolin-1-amine]
21 | 3 to 10 | > 40 | – | 3 to 10 | – | Nc1nccc2c(NCC34CC(COc5ccc6nc(C(F)(F)F)cn6n5)(CO3)C4)cccc12 [Example 6615, N5-((4-(((2-(trifluoromethyl)imidazo[1,2-b]pyridazin-6-yl)oxy)methyl)-2-oxabicyclo[2.1.1]hexan-1-yl)methyl)isoquinoline-1,5-diamine]
22 | 10 to 40 | > 40 | – | 0.01 to 0.1 | > 4 | Cn1ccc(OCC23CNC(CNc4cccc5c(N)nccc45)(C2)C3)cc1=O [Example 12007, 4-((1-(((1-aminoisoquinolin-5-yl)amino)methyl)-2-azabicyclo[2.1.1]hexan-4-yl)methoxy)-1-methylpyridin-2(1H)-one]
